# Laboratory results: ChEMBL document CHEMBL1201861, “Genomics of Drug Sensitity in Cancer screening data, Wellcome Trust Sanger Institute”
# What was measured:
# Experiment in all cases: cells
# A704 = type: functional, cell-based, Homo sapiens; conditions: Homo sapiens, A704;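 further: growth inhibition of human A704 cells, read out with a cell viability assay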
# Description: SANGER: Inhibition of human A704 cell growth in a cell viability assay.
# CWR22R = type: functional, cell-based, Homo sapiens; conditions: Homo sapiens, 22Rv1;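 further: growth inhibition of 22Rv1 cells, read out with a cell viability assay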
# Description: SANGER: Inhibition of human 22RV1 cell growth in a cell viability assay.
# SK-N-AS = type: functional, cell-based, Homo sapiens; conditions: Homo sapiens, SK-N-AS;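 further: growth inhibition of human SK-N-AS cells, measured with a cell viability assay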
# Description: SANGER: Inhibition of human SK-N-AS cell growth in a cell viability assay.
# GP5d = type: functional, cell-based, Homo sapiens; conditions: Homo sapiens, GP5d;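 further: growth inhibition of human GP5d cells, read out with a cell viability assay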
# Description: SANGER: Inhibition of human GP5d cell growth in a cell viability assay.
# MG-63 = type: functional, cell-based, Homo sapiens; conditions: Homo sapiens, MG-63;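 further: growth inhibition of human MG-63 cells, read out with a cell viability assay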
# Description: SANGER: Inhibition of human MG-63 cell growth in a cell viability assay.
# Lu-65 = type: functional, cell-based; conditions: Homo sapiens;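 further: growth inhibition of Lu-65 cancer cells, read out by a cell viability assay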
# Description: SANGER: Inhibition of human LU-65 cell growth in a cell viability assay.
# OS-RC-2 = type: functional, cell-based, Homo sapiens; conditions: Homo sapiens, OS-RC-2;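 further: growth inhibition of human OS-RC-2 cells, measured by a cell viability assay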
# Description: SANGER: Inhibition of human OS-RC-2 cell growth in a cell viability assay.
# ESS-1 = type: functional, cell-based, Homo sapiens; conditions: Homo sapiens, ESS-1;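 further: growth inhibition of human ESS-1 cells, read out by a cell viability assay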
# Description: SANGER: Inhibition of human ESS-1 cell growth in a cell viability assay.
# TGBC24TKB = type: functional, cell-based, Homo sapiens; conditions: Homo sapiens, TGBC24TKB;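 further: growth inhibition of human TGBC24TKB cells, read out with a cell viability assay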
# Description: SANGER: Inhibition of human TGBC24TKB cell growth in a cell viability assay.
# A-431 = type: functional, cell-based, Homo sapiens; conditions: Homo sapiens, A-431;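 further: growth inhibition of A-431 cells, determined with a cell viability read-out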
# Description: SANGER: Inhibition of human A431 cell growth in a cell viability assay.
# IST-MES1 = type: functional, cell-based, Homo sapiens; conditions: Homo sapiens, IST-MES1;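 further: growth inhibition of IST-MES1 cells, measured with a cell viability assay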
# Description: SANGER: Inhibition of human IST-MES1 cell growth in a cell viability assay.
# HCC1569 = type: functional, cell-based, Homo sapiens; conditions: Homo sapiens, HCC1569;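 further: growth inhibition of human HCC1569 cells, read out with a cell viability assay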
# Description: SANGER: Inhibition of human HCC1569 cell growth in a cell viability assay.
# C-33-A = type: functional, cell-based, Homo sapiens; conditions: Homo sapiens, C-33-A;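 further: cell viability assay measuring growth inhibition of C-33-A cells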
# Description: SANGER: Inhibition of human C-33-A cell growth in a cell viability assay.
# RKO = type: functional, cell-based, Homo sapiens; conditions: Homo sapiens, RKO;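 further: growth inhibition of human RKO cells, read out with a cell viability assay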
# Description: SANGER: Inhibition of human RKO cell growth in a cell viability assay.
# LoVo = type: functional, cell-based; conditions: Homo sapiens;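 further: growth inhibition of human LoVo cells, read out with a cell viability assay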
# Description: SANGER: Inhibition of human LoVo cell growth in a cell viability assay.
# D-392MG = type: functional, cell-based, Homo sapiens; conditions: Homo sapiens, D-392MG
# CP50-MEL-B = type: functional, cell-based, Homo sapiens; conditions: Homo sapiens, CP50-MEL-B;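 further: growth inhibition of the human cell line, measured with a cell viability read-out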
# Description: SANGER: Inhibition of human CP50-MEL-B cell growth in a cell viability assay.
# SW872 = type: functional, cell-based, Homo sapiens; conditions: Homo sapiens, SW872;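 further: growth inhibition of SW872 cells, read out by a viability assay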
# Description: SANGER: Inhibition of human SW872 cell growth in a cell viability assay.
# UACC-257 = type: functional, cell-based, Homo sapiens; conditions: Homo sapiens, UACC-257
# Description: SANGER: Inhibition of human UACC-257 cell growth in a cell viability assay.
# LB1047-RCC = type: functional, cell-based, Homo sapiens; conditions: Homo sapiens, LB1047-RCC;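 further: inhibition of cell growth, determined with a cell viability assay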
# Description: SANGER: Inhibition of human LB1047-RCC cell growth in a cell viability assay.
# CAL-33 = type: functional, cell-based, Homo sapiens; conditions: Homo sapiens, CAL-33;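 further: growth inhibition of CAL-33 cells, read out with a cell viability assay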
# Description: SANGER: Inhibition of human CAL-33 cell growth in a cell viability assay.
# KLE = type: functional, cell-based, Homo sapiens; conditions: Homo sapiens, KLE;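 further: growth inhibition of human KLE cells, read out with a cell viability assay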
# Description: SANGER: Inhibition of human KLE cell growth in a cell viability assay.
# KYSE-270 = type: functional, cell-based, Homo sapiens; conditions: Homo sapiens, KYSE-270;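 further: cell growth inhibition measured with a viability assay in the human KYSE-270 line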
# Description: SANGER: Inhibition of human KYSE-270 cell growth in a cell viability assay.
# S-117 = type: functional, cell-based, Homo sapiens; conditions: Homo sapiens, S-117
# Description: SANGER: Inhibition of human S-117 cell growth in a cell viability assay.
# COLO-679 = type: functional, cell-based, Homo sapiens; conditions: Homo sapiens, COLO-679
# Description: SANGER: Inhibition of human COLO-679 cell growth in a cell viability assay.
# NCI-H2087 = type: functional, cell-based, Homo sapiens; conditions: Homo sapiens, NCI-H2087;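 further: growth inhibition determined with a cell viability readout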
# Description: SANGER: Inhibition of human NCI-H2087 cell growth in a cell viability assay.
# KG-1 = type: functional, cell-based; conditions: Homo sapiens;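 further: growth inhibition of KG-1 cells, read out by a cell viability assay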
# Description: SANGER: Inhibition of human KG-1 cell growth in a cell viability assay.
# SH-4 = type: functional, cell-based, Homo sapiens; conditions: Homo sapiens, SH-4;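 further: growth inhibition of SH-4 cells, read out with a cell viability assay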
# Description: SANGER: Inhibition of human SH-4 cell growth in a cell viability assay.
# NCI-H596 = type: functional, cell-based, Homo sapiens; conditions: Homo sapiens, NCI-H596;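 further: growth inhibition of NCI-H596 cells, read out with a cell viability assay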
# Description: SANGER: Inhibition of human NCI-H596 cell growth in a cell viability assay.
# CAL-62 = type: functional, cell-based, Homo sapiens; conditions: Homo sapiens, CAL-62;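 further: growth inhibition of CAL-62 cells, read out with a cell viability assay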
# Description: SANGER: Inhibition of human CAL-62 cell growth in a cell viability assay.
# NCI-H292 = type: functional, cell-based, Homo sapiens; conditions: Homo sapiens, NCI-H292;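 further: growth inhibition of NCI-H292 cells, read out with a cell viability assay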
# Description: SANGER: Inhibition of human NCI-H292 cell growth in a cell viability assay.
# no-11 = type: functional, cell-based, Homo sapiens; conditions: Homo sapiens;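 further: growth inhibition of human NO-11 cells, read out with a cell viability assay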
# Description: SANGER: Inhibition of human no-11 cell growth in a cell viability assay.
# BE-13 = type: functional, cell-based; conditions: Homo sapiens;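 further: growth inhibition of human BE-13 cells, measured with a cell viability assay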
# Description: SANGER: Inhibition of human BE-13 cell growth in a cell viability assay.
# EW-24 = type: functional, cell-based; conditions: Homo sapiens;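 further: human EW-24 cancer cell line, growth inhibition read out via a cell viability assay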
# Description: SANGER: Inhibition of human EW-24 cell growth in a cell viability assay.
# SiHa = type: functional, cell-based, Homo sapiens; conditions: Homo sapiens, SiHa;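 further: Viability-based readout of growth inhibition in SiHa cells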
# Description: SANGER: Inhibition of human SiHa cell growth in a cell viability assay.
# WM-115 = type: functional, cell-based, Homo sapiens; conditions: Homo sapiens, WM-115
# Description: SANGER: Inhibition of human WM-115 cell growth in a cell viability assay.
# NKM-1 = type: functional, cell-based; conditions: Homo sapiens;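 further: growth inhibition of NKM-1 cells, read out with a cell viability assay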
# Description: SANGER: Inhibition of human NKM-1 cell growth in a cell viability assay.
# CCRF-CEM = type: functional, cell-based; conditions: Homo sapiens;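 further: inhibition of CCRF-CEM cell growth, measured by a cell viability assay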
# Description: SANGER: Inhibition of human CCRF-CEM cell growth in a cell viability assay.
# NCI-H358 = type: functional, cell-based, Homo sapiens; conditions: Homo sapiens, NCI-H358;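 further: growth inhibition of NCI-H358 human cells, read out with a cell viability assay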
# Description: SANGER: Inhibition of human NCI-H358 cell growth in a cell viability assay.
# MDA-MB-415 = type: functional, cell-based; conditions: Homo sapiens
# NCI-H1395 = type: functional, cell-based, Homo sapiens; conditions: Homo sapiens, NCI-H1395;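 further: cell viability assay read-out quantifying reduced proliferation of human NCI-H1395 cells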
# Description: SANGER: Inhibition of human NCI-H1395 cell growth in a cell viability assay.
# ATN-1 = type: functional, cell-based; conditions: Homo sapiens;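 further: growth inhibition of human ATN-1 cells, read out with a cell viability assay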
# Description: SANGER: Inhibition of human ATN-1 cell growth in a cell viability assay.
# NCI-H2347 = type: functional, cell-based, Homo sapiens; conditions: Homo sapiens, NCI-H2347;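 further: growth inhibition of the cell line, read out with a cell viability assay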
# Description: SANGER: Inhibition of human NCI-H2347 cell growth in a cell viability assay.
# HH = type: functional, cell-based; conditions: Homo sapiens
# Description: SANGER: Inhibition of human HH cell growth in a cell viability assay.
# RH-1 = type: functional, cell-based, Homo sapiens; conditions: Homo sapiens, RH-1;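 further: growth inhibition of human RH-1 cells, read out with a cell viability assay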
# Description: SANGER: Inhibition of human RH-1 cell growth in a cell viability assay.
# SW1573 = type: functional, cell-based, Homo sapiens; conditions: Homo sapiens, SW1573;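 further: growth inhibition of SW1573 cells, read out with a cell viability assay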
# Description: SANGER: Inhibition of human SW1573 cell growth in a cell viability assay.
# COR-L105 = type: functional, cell-based, Homo sapiens; conditions: Homo sapiens, COR-L105;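 further: cell growth inhibition determined with a viability assay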
# Description: SANGER: Inhibition of human COR-L105 cell growth in a cell viability assay.
# GCIY = type: functional, cell-based, Homo sapiens; conditions: Homo sapiens, GCIY;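 further: growth inhibition of the human GCIY cell line, read out by a cell viability assay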
# Description: SANGER: Inhibition of human GCIY cell growth in a cell viability assay.
# ES7 = type: functional, cell-based, Homo sapiens; conditions: Homo sapiens, ES7;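 further: growth inhibition of cultured human ES7 cells, read out as cell viability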
# Description: SANGER: Inhibition of human ES7 cell growth in a cell viability assay.
# LAN-6 = type: functional, cell-based, Homo sapiens; conditions: Homo sapiens, LAN-6;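 further: growth inhibition of LAN-6 cells, determined with a cell viability assay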
# Description: SANGER: Inhibition of human LAN-6 cell growth in a cell viability assay.
# EKVX = type: functional, cell-based, Homo sapiens; conditions: Homo sapiens, EKVX;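 further: growth inhibition of human EKVX cells, read out with a cell viability assay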
# Description: SANGER: Inhibition of human EKVX cell growth in a cell viability assay.
# NCI-H82 = type: functional, cell-based; conditions: Homo sapiens;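 further: growth inhibition of NCI-H82 cells, measured with a cell viability readout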
# Description: SANGER: Inhibition of human NCI-H82 cell growth in a cell viability assay.
smiles,measurement,setting,value
C=CCc1cccc(/C=N/NC(=O)CN2CCN(Cc3ccccc3)CC2)c1O [PAC-1],IC50,A704,> 2560 nM
same,IC50,CWR22R,> 2560 nM
same,IC50,SK-N-AS,> 2560 nM
same,IC50,GP5d,> 2560 nM
same,IC50,MG-63,> 2560 nM
same,IC50,Lu-65,> 2560 nM
same,IC50,OS-RC-2,> 2560 nM
same,IC50,ESS-1,> 2560 nM
same,IC50,TGBC24TKB,> 2560 nM
same,IC50,A-431,> 2560 nM
same,IC50,IST-MES1,> 2560 nM
same,IC50,HCC1569,> 2560 nM
same,IC50,C-33-A,> 2560 nM
same,IC50,RKO,> 2560 nM
same,IC50,LoVo,> 2560 nM
same,IC50,D-392MG,> 2560 nM
same,IC50,CP50-MEL-B,> 2560 nM
same,IC50,SW872,> 2560 nM
same,IC50,UACC-257,> 2560 nM
same,IC50,LB1047-RCC,> 2560 nM
same,IC50,CAL-33,> 2560 nM
same,IC50,KLE,> 2560 nM
same,IC50,KYSE-270,2460 nM
same,IC50,S-117,> 2560 nM
same,IC50,COLO-679,803 nM
same,IC50,NCI-H2087,> 2560 nM
same,IC50,KG-1,> 2560 nM
same,IC50,SH-4,> 2560 nM
same,IC50,NCI-H596,> 2560 nM
same,IC50,CAL-62,> 2560 nM
same,IC50,NCI-H292,> 2560 nM
same,IC50,no-11,> 2560 nM
same,IC50,BE-13,> 2560 nM
same,IC50,EW-24,> 2560 nM
same,IC50,SiHa,> 2560 nM
same,IC50,WM-115,> 2560 nM
same,IC50,NKM-1,> 2560 nM
same,IC50,CCRF-CEM,566 nM
same,IC50,NCI-H358,1240 nM
same,IC50,MDA-MB-415,> 2560 nM
same,IC50,NCI-H1395,> 2560 nM
same,IC50,ATN-1,> 2560 nM
same,IC50,NCI-H2347,> 2560 nM
same,IC50,HH,> 2560 nM
same,IC50,RH-1,> 2560 nM
same,IC50,SW1573,> 2560 nM
same,IC50,COR-L105,> 2560 nM
same,IC50,GCIY,> 2560 nM
same,IC50,ES7,> 2560 nM
same,IC50,LAN-6,> 2560 nM
same,IC50,EKVX,> 2560 nM
same,IC50,NCI-H82,> 2560 nM
CC(=O)O[C@@]12CO[C@@H]1C[C@H](O)[C@@]1(C)C(=O)[C@H](O)C3=C(C)[C@@H](OC(=O)[C@H](O)[C@@H](NC(=O)OC(C)(C)C)c4ccccc4)C[C@@](O)([C@@H](OC(=O)c4ccccc4)[C@H]21)C3(C)C [DOCETAXEL],IC50,A704,> 10 nM
same,IC50,CWR22R,3.15 nM
same,IC50,SK-N-AS,5.35 nM
same,IC50,GP5d,2.96 nM
same,IC50,MG-63,1.51 nM
same,IC50,Lu-65,> 10 nM
same,IC50,OS-RC-2,> 10 nM
same,IC50,ESS-1,0.179 nM
same,IC50,TGBC24TKB,7.81 nM
same,IC50,A-431,> 10 nM
same,IC50,IST-MES1,8.4 nM
same,IC50,HCC1569,> 10 nM
same,IC50,C-33-A,2.66 nM
same,IC50,RKO,0.989 nM
same,IC50,LoVo,> 10 nM
same,IC50,D-392MG,> 10 nM
same,IC50,CP50-MEL-B,6.93 nM
same,IC50,SW872,> 10 nM
same,IC50,UACC-257,> 10 nM
same,IC50,LB1047-RCC,8.8 nM
same,IC50,CAL-33,1.04 nM
same,IC50,KLE,> 10 nM
same,IC50,KYSE-270,2.78 nM
same,IC50,S-117,4.86 nM
same,IC50,COLO-679,> 10 nM
same,IC50,NCI-H2087,7.48 nM
same,IC50,KG-1,> 10 nM
same,IC50,SH-4,3.22 nM
same,IC50,NCI-H596,> 10 nM
same,IC50,CAL-62,0.185 nM
same,IC50,NCI-H292,0.159 nM
same,IC50,no-11,> 10 nM
same,IC50,BE-13,3.93 nM
same,IC50,EW-24,4.33 nM
same,IC50,SiHa,4.3 nM
same,IC50,WM-115,6.27 nM
same,IC50,NKM-1,> 10 nM
same,IC50,CCRF-CEM,> 10 nM
same,IC50,NCI-H358,7.58 nM
same,IC50,MDA-MB-415,2.74 nM
same,IC50,NCI-H1395,3.96 nM
same,IC50,ATN-1,> 10 nM
same,IC50,NCI-H2347,> 10 nM
same,IC50,HH,> 10 nM
same,IC50,RH-1,0.386 nM
same,IC50,SW1573,5.54 nM
same,IC50,COR-L105,> 10 nM
same,IC50,GCIY,> 10 nM
same,IC50,ES7,0.389 nM
same,IC50,LAN-6,> 10 nM
same,IC50,EKVX,> 10 nM
same,IC50,NCI-H82,8.22 nM
CCC1=C[C@@H]2CN(C1)Cc1c([nH]c3ccccc13)[C@@](C(=O)OC)(c1cc3c(cc1OC)N(C)[C@H]1[C@@](O)(C(=O)OC)[C@H](OC(C)=O)[C@]4(CC)C=CCN5CC[C@]31[C@@H]54)C2 [VINORELBINE],IC50,A704,> 64 nM
same,IC50,CWR22R,8.79 nM
same,IC50,SK-N-AS,> 64 nM
same,IC50,GP5d,7.84 nM
same,IC50,MG-63,2.94 nM
same,IC50,Lu-65,24.5 nM
same,IC50,OS-RC-2,34.3 nM
same,IC50,ESS-1,9.14 nM
same,IC50,TGBC24TKB,20.1 nM
same,IC50,A-431,2.9 nM
same,IC50,IST-MES1,> 64 nM
same,IC50,HCC1569,4.93 nM
same,IC50,C-33-A,7.31 nM
same,IC50,RKO,1.52 nM
same,IC50,LoVo,7.9 nM
same,IC50,D-392MG,> 64 nM
same,IC50,CP50-MEL-B,43.4 nM
same,IC50,SW872,5.65 nM
same,IC50,UACC-257,30.4 nM
same,IC50,LB1047-RCC,> 64 nM
same,IC50,CAL-33,5.02 nM
same,IC50,KLE,> 64 nM
same,IC50,KYSE-270,3.16 nM
same,IC50,S-117,> 64 nM
same,IC50,COLO-679,1.83 nM
same,IC50,NCI-H2087,8.22 nM
same,IC50,KG-1,> 64 nM
same,IC50,SH-4,15.5 nM
same,IC50,NCI-H596,> 64 nM
same,IC50,CAL-62,8.18 nM
same,IC50,NCI-H292,5.05 nM
same,IC50,no-11,> 64 nM
same,IC50,BE-13,12.4 nM
same,IC50,EW-24,> 64 nM
same,IC50,SiHa,> 64 nM
same,IC50,WM-115,> 64 nM
same,IC50,NKM-1,4.97 nM
same,IC50,CCRF-CEM,4.56 nM
same,IC50,NCI-H358,5.89 nM
same,IC50,MDA-MB-415,24.1 nM
same,IC50,NCI-H1395,53.5 nM
same,IC50,ATN-1,1.94 nM
same,IC50,NCI-H2347,26.1 nM
same,IC50,HH,8.88 nM
same,IC50,RH-1,11 nM
same,IC50,SW1573,34 nM
same,IC50,COR-L105,30.9 nM
same,IC50,GCIY,57.9 nM
same,IC50,ES7,3.86 nM
same,IC50,LAN-6,> 64 nM
same,IC50,EKVX,> 64 nM
same,IC50,NCI-H82,60 nM
